Article PMC7773179, “Development and application of high-throughput screens for the discovery of compounds that disrupt ErbB4 signaling: Candidate cancer therapeutics” (PLoS ONE, 2020)

Tests used:
[1] = system: BaF3/EGFR+ErbB4 cells; experiment: IL3-dependent proliferation of BaF3/EGFR+ErbB4 cells, semi-automated MTT assay; settings: for IC50: Mus musculus, BaF3, 120 h; for IC50 against 0.1 nM IL3: three independent trials, 120 h MTT, NA = not active
Method: As noted earlier, the BaF3/EGFR+ErbB4 cells are IL3 dependent and this dependency can be rescued by stimulation of ErbB4 coupling to cell proliferation [8]. Therefore, the specificity of each of the 19 candidate ErbB4 inhibitors was tested by assaying inhibition of ErbB4-dependent and IL3-dependent cellular proliferation in parallel.

[2] = system: BaF3/EGFR+ErbB4 cells; experiment: ErbB4-dependent (NRG1β-induced, IL3-independent) proliferation of BaF3/EGFR+ErbB4 cells, semi-automated MTT assay; assay type: cell-based, Mouse; settings: for IC50: Mus musculus, BaF3, read-out: IC50 against 0.3 nM NRG1β, three independent trials; for IC50 / NRG1β Emax ± SE in the presence of candidate: 120 h MTT; for NRG1β Emax ± SE in the presence of candidate: increasing NRG1β, three trials; for selective and potent inhibition of ErbB4-dependent cell proliferation (in words): ErbB4-dependent versus IL3-dependent proliferation
Method: This proliferation is dependent upon exogenous ErbB4 expression.
As noted earlier, the BaF3/EGFR+ErbB4 cells are IL3 dependent and this dependency can be rescued by stimulation of ErbB4 coupling to cell proliferation. Therefore, the specificity of each of the 19 candidate ErbB4 inhibitors was tested by assaying inhibition of ErbB4-dependent and IL3-dependent cellular proliferation in parallel.

[3] = molecular target: T1, ErbB4 (Homo sapiens, UniProt Q15303); experiment: phospho-ErbB4 sandwich ELISA: stimulation of ErbB4 tyrosine phosphorylation in CEM/ErbB4 cells; assay type: cell-based; settings: for Emax: percentage of ErbB4 tyrosine phosphorylation stimulated by 10 nM NRG1β, read-out: ErbB4 Tyrosine Phosphorylation Emax ± SE; for EC50: semi-automated, 0–30 μM, at least three independent trials, read-out: ErbB4 Tyrosine Phosphorylation EC50 ± SE
T1 construct: expressed in transfected cells; host or cells: CEM/ErbB4 cells
T1 sequence (Q15303 26-1308): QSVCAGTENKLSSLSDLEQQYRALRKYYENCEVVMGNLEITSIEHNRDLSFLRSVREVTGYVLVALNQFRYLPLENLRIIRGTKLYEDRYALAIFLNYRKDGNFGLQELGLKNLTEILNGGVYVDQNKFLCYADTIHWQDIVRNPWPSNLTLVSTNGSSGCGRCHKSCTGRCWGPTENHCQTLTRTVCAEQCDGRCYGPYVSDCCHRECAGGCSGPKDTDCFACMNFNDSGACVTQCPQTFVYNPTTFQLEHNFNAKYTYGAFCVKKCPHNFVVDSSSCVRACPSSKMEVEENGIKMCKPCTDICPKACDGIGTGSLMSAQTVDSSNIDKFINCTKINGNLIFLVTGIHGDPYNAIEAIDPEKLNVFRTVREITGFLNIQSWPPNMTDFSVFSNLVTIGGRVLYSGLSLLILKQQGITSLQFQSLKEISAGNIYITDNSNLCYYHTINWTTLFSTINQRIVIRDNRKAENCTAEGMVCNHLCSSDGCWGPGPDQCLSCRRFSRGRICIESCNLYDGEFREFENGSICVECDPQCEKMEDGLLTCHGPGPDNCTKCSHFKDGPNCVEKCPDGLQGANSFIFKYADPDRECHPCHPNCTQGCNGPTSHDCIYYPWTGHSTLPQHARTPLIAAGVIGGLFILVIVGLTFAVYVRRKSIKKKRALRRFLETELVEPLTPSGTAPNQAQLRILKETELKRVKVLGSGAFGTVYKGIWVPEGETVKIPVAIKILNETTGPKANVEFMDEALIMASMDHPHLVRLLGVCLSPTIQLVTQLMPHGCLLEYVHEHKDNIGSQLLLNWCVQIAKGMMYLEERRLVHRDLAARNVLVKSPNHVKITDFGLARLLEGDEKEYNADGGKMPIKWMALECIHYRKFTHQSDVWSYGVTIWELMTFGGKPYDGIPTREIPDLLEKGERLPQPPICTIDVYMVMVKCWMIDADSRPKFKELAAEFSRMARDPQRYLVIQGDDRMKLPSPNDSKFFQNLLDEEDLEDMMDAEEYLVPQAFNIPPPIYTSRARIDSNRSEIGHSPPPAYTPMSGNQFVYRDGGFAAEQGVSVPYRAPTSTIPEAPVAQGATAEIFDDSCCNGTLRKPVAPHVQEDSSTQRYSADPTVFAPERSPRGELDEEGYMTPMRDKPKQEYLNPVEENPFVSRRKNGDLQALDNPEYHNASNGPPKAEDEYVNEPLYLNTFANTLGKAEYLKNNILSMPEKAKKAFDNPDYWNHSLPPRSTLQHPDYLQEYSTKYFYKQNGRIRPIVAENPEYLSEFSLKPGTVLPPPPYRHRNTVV
Source text: Our ultimate goal is the identification of ErbB4 partial agonists that inhibit coupling of ErbB4 to cell proliferation, preferably through stimulation of phosphorylation-dependent ErbB4 turnover and degradation. Thus, the first goal of these experiments is to develop and deploy an assay for stimulation of ErbB4 tyrosine phosphorylation. The CEM/ErbB4 cell line previously validated for assaying ligand-induced ErbB4 tyrosine phosphorylation was used to develop a 96-well assay for stimulation and inhibition of ErbB4 tyrosine phosphorylation. Briefly, ErbB4 tyrosine phosphorylation was assayed using a “sandwich” enzyme-linked immunosorbent assay (ELISA) kit (R&D Systems) that features an anti-ErbB4 capture antibody and an anti-phosphotyrosine detection antibody.
Lysates generated by a previously established protocol for stimulating ErbB4 tyrosine phosphorylation in CEM/ErbB4 cells were used to develop and evaluate the ELISA conditions. Briefly, the CEM/ErbB4 cells were starved for 24 hours in serum- and factor-free base medium (RPMI) before being stimulated for seven minutes on ice with NRG2β (full agonist positive control), NRG2β/Q43L (partial agonist positive control), or NRG2β diluent (mock stimulation negative control). The cells were then lysed, and the lysates were immediately assayed for ErbB4 tyrosine phosphorylation or stored at -80°C until assayed.
Ligand-induced ErbB4 tyrosine phosphorylation was stimulated using a published protocol. Briefly, the CEM/ErbB4 cells were starved for 24 hours in serum- and factor-free base medium (RPMI) before being stimulated for 7 minutes on ice with an ErbB4 ligand (NRG1β, NRG2β, or NRG2β/Q43L) or candidate small molecule ErbB4 partial agonists. The cells were then lysed using a published protocol, and the lysates were immediately assayed for ErbB4 tyrosine phosphorylation or stored at -80°C until assayed.
ErbB4 tyrosine phosphorylation was analyzed using a 96-well “sandwich” enzyme-linked immunosorbent assay (ELISA) kit from R&D Systems (Catalog number DYC2115-2), which features an anti-ErbB4 capture antibody and an anti-phosphotyrosine antibody that is coupled to horseradish peroxidase (HRP). First, each well in a 96-well flat-bottom plate (ELISA plate) was coated with the anti-ErbB4 capture antibody, which recognizes the amino terminus of ErbB4. Nonspecific binding sites were then treated with a blocking buffer (1% BSA in PBS). Lysate samples containing ErbB4 were then added to the wells and incubated to permit ErbB4 binding to the immobilized anti-ErbB4 antibody. Then, an anti-phosphotyrosine antibody tagged with HRP was used to detect and visualize the phosphorylated tyrosine residues of the immobilized ErbB4 molecules. Oxidation of 3,3´,5,5´-tetramethylbenzidine by HRP (stopped using sulfuric acid) is indicative of ErbB4 tyrosine phosphorylation and was detected by measuring absorption at 450 nm. The data generated during the course of validating these assay conditions can be found in a (S1 Data).
A Beckman Coulter Biomek 4000 automated liquid handling system was used to convert our standard, batch method for agonist stimulation of ErbB4 tyrosine phosphorylation to a semi-automated 96-well methodology. […] After stimulation, lysis buffer was added to each well and incubated for 20 minutes at 4°C with shaking. Following incubation, the plates were centrifuged at 3200 RCF for 20 minutes at 4°C.

[4] = read-out: IC50 against 0.1 nM IL3, extrapolated value
[5] = read-out: IC50 against 0.1 nM IL3

| Structure (SMILES) | IC50 [1, 4] [µM] | IC50 ([2]; NA = not active) [µM] | NRG1β Emax ± SE in the presence of candidate ([2]; candidate 30 μM) [AU] | Emax [3] [%] | EC50 [3] [nM] | IC50 [1, 5] [µM] | inhibition of NRG1β-stimulated ErbB4-dependent proliferation (in words) ([2]; candidate 30 μM) | selective and potent inhibition of ErbB4-dependent cell proliferation (in words) [2] | IC50 against 0.1 nM IL3 [1] | IC50 ([2]; *Extrapolated value) [µM] |
| --- | --- | --- | --- | --- | --- | --- | --- | --- | --- | --- |
| O=S(=O)(NCc1cccnc1)c1ccc(Br)cc1Br [SR-33485] | 38 | 13 | 0.01 ± 0.02 | 3 ± 0.9 | < 300 | – | – | – | – | – |
| O=C1NC(=O)/C(=C\c2ccc(OCc3ccc4ccccc4c3)c(I)c2)N1 [SR-33498] | – | 2.3 | 0 | 1.4 ± 0.4 | 1500 ± 600 | 4.8 | – | – | – | – |
| COc1cc(CNCC2CCNCC2)cc(Cl)c1OCc1ccc(C)cc1 [SR-33507] | – | 0.39 | 0 | 2.9 ± 0.4 | < 300 | 0.72 | completely inhibits | – | – | – |
| CCOc1ccc(CN(C(=O)[C@H](N)Cc2c[nH]c3ccccc23)C2CC2)cc1 [SR-33511] | – | 6.8 | 0 | 5.2 ± 1 | 2100 ± 1300 | 13 | – | – | – | – |
| O=C1NC2=Nc3ccccc3SC(c3ccccc3)=C2C(c2ccc(O)cc2)N1 (centres unmarked) [SR-33494] | 32 | 7 | 0 | 2.3 ± 0.4 | < 300 | – | – | selectively and potently inhibit | – | – |
| COc1ccc(C2CCCN2C(=O)c2c(-c3ccccc3Cl)noc2C)cc1 (centres unmarked) [SR-33509] | – | – | 0.11 ± 0.02 | 1.4 ± 0.3 | 380 ± 250 | – | – | – | fails to inhibit | 32 |
| O=[N+]([O-])c1ccc(CN2CCN(C3CCC(c4ccccc4)CC3)CC2)cc1 (centres unmarked) [SR-33497] | 390 | – | 0.09 ± 0.02 | 1.8 ± 0.5 | < 300 | – | – | – | – | 47 |
| O=C(Nc1cccc(O)c1)c1cc2nc(-c3ccccc3)cc(-c3ccccc3)n2n1 [SR-33487] | 2100 | 6.8 | 0.07 ± 0.01 | 2.7 ± 0.2 | < 300 | – | – | selectively and potently inhibit | – | – |
| O=C(CC1c2ccccc2Oc2ccccc21)NCCOc1ccccc1 [SR-33492] | 81 | 12 | 0.03 ± 0.01 | 1.8 ± 0.2 | 4100 ± 2900 | – | – | selectively and potently inhibit | – | – |
| CCOC(=O)C1=C(N)OC2=C(C(=O)CC(C)(C)C2)C1C1CCCCC1 (centres unmarked) [SR-33491] | – | 29 | 0.15 ± 0.02 | 2.8 ± 0.4 | 680 ± 360 | – | – | selectively and potently inhibit | no inhibition | – |
| CCC(=O)NC(N(Cc1ccccc1)Cc1ccccc1)C(Cl)(Cl)Cl (centres unmarked) [SR-33483] | – | 6 | 0 | 4.7 ± 1.1 | 470 ± 380 | 28 | – | selectively and potently inhibit | – | – |
| O=C(c1nn2c(c1Cl)NC(c1cccs1)CC2C(F)(F)F)N(Cc1ccccc1)Cc1ccccc1 (centres unmarked) [SR-33493] | – | 5.6 | 0 | 2.1 ± 3.8 | < 300 | 15 | – | – | – | – |
| CCCOc1ccc(C(=O)C(CCCCC(CN(C)C)C(=O)c2ccc(OCCC)cc2)CN(C)C)cc1 (centres unmarked) [SR-33486] | – | 0.11 | 0 | 5.9 ± 2.8 | < 300 | 0.45 | – | selectively and potently inhibit | – | – |
| Cc1nn(-c2ccccc2)c2c1C(c1ccccc1F)SCC(=O)N2 (centres unmarked) [SR-33510] | – | 11 | 0.03 ± 0.01 | 1.2 ± 0.4 | 2000 ± 800 | 29 | – | – | – | – |
